In patent publication US10597719B2, “Detection kit and simple method for detecting target nucleic acids” (National University Corporation Gunma University, priority 2015, dated 2020):
Read-outs that look alike come from different tables or passages of the source.

Columns and labels:
22AG = assay: Fluorescence titration, binding of dye to 22AG; design: species or system human
Procedure: (§1) The following six kinds of G4-forming human-derived oligonucleotides were used:
(§2) telomere regions (22AG and 26Tel);
(§3) Each of the eight kinds of oligonucleotides (22AG, 26Tel, 27Myc, 22Kit, 20Src, 18Ras, ssDNA, and dsDNA) was dissolved in the buffer TRS50K, PBS150K, PBS140KM, or PBS153NM at a concentration of 21 μM, and denatured by heating at 95° C. (or at 40° C. for 18Ras) for 0.5 minute using a thermal cycler, followed by cooling the resulting solution to 25° C. at a rate of 0.5° C./minute to allow refolding. Each solution was diluted to an appropriate oligonucleotide concentration, and its aliquots (50 μL each) were incubated at 25° C. for 30 minutes, followed by mixing each aliquot with 20 μL of a solution of a dye (ThT, ThT-DB, or ThT-HE; 10.5 μM) in the buffer TRS50K, PBS150K, PBS140KM, or PBS153NM. These mixtures were incubated at 25° C. for 30 minutes. An emission spectrum of each dye was obtained by excitation at 415 nm and monitoring of fluorescence between 450 nm and 600 nm.
(§4) FIGS. 3-4 to 3-6 show relative fluorescence intensities as the peaks of the emitted light at 485 nm (ThT and ThT-HE) or 500 nm (ThT-DB) with respect to the intensity of the dye that interacted with dsDNA, which was taken as 1. The X-axis represents the oligonucleotide concentration.

26Tel = assay: Fluorescence titration, binding of dye to 26Tel; design: species or system human
Procedure: as §1, §2, §3, §4

27Myc = assay: Fluorescence titration, binding of dye to 27Myc; design: species or system human; settings: for Kd: read-out: Kd 27Mye
Procedure: as §1
the nuclease-sensitive element region of the c-Myc P1 promoter (27Myc);
as §3, §4

22Kit = assay: Fluorescence titration, binding of dye to 22Kit; design: species or system human
Procedure: as §1
the 87-nucleotide upstream region of the transcription initiation site of a proto-oncogene encoding tyrosine kinase (22Kit);
as §3, §4

20Src = assay: Fluorescence titration, binding of dye to 20Src; design: species or system human; settings: n.d. cells, read-out: Kd 20Sre
Procedure: as §1
a proto-oncogene encoding a nonreceptor tyrosine kinase (20Src); and
as §3, §4

18Ras = assay: Fluorescence titration, binding of dye to 18Ras; design: species or system human
Procedure: as §1
the 5′-untranslated region of a human NRAS proto-oncogene transcript (18Ras).
as §3, §4

ssDNA = assay: Fluorescence titration, binding of dye to ssDNA standard; settings: n.d. cells
Procedure: (§5) Besides these sequences, the following two kinds of oligonucleotides were used as standards:
(§6) The ssDNA was used as a single-stranded DNA, and the cDNA was used as a double-stranded DNA (dsDNA) by mixing with the ssDNA at a ratio of 1:1.
as §3, §4

dsDNA = assay: Fluorescence titration, binding of dye to dsDNA standard; settings: for Kd: n.d. cells; for emission of fluorescence in the presence of dsDNA: dye 3 μM in PBS153NM, dsDNA 0-15 μM (FIG. 2)
Procedure: as §5, §6, §3, §4

target G4 = assay: Affinity of dyes to the target G4, overall comparison from Table 1; format: binding, human; settings: according to Table 1
Procedure: as §3, §4

Structure (SMILES) | Kd (22AG; buffer PBS150K) [µM] | Kd (22AG; buffer PBS153NM, n.d. cells) [µM] | Kd (26Tel; buffer PBS150K) [µM] | Kd (26Tel; buffer PBS153NM) [µM] | Kd (27Myc; buffer PBS150K) [µM] | Kd (27Myc; buffer PBS153NM) [µM] | Kd (22Kit; buffer PBS150K) [µM] | Kd (22Kit; buffer PBS153NM) [µM] | Kd (20Src; buffer PBS150K) [µM] | Kd (20Src; buffer PBS153NM) [µM] | Kd (18Ras; buffer PBS150K) [µM] | Kd (18Ras; buffer PBS153NM) [µM] | Kd (ssDNA; buffer PBS150K) [µM] | Kd (ssDNA; buffer PBS153NM) [µM] | Kd (dsDNA; buffer PBS150K) [µM] | Kd (dsDNA; buffer PBS153NM) [µM] | emission of fluorescence in the presence of dsDNA (dsDNA) | Kd (26Tel; buffer PBS153NM, n.d. cells) [µM] | specificity to guanine quadruplex (27Myc; 27Myc versus dsDNA, PBS153NM (FIG. 2)) | affinity to the target G4 compared with ThT (target G4)
Cc1ccc2c(c1)sc(-c1ccc(N(C)C)cc1)[n+]2C.[Cl-] [ThT, thioflavin T, reference compound] | 7.3 ± 0.3 | > 40 | 5 ± 0.8 | 25.3 ± 1.5 | 8.7 ± 1 | 7.2 ± 0.6 | 12.3 ± 1.8 | 7.2 ± 0.9 | > 40 | > 40 | 10.3 ± 3 | 16 ± 4.2 | > 40 | > 40 | > 40 | > 40 | considerable level of emission of fluorescence | – | – | –
Cc1ccc2c(c1)sc(-c1ccc(N(C)C)cc1)[n+]2CCO [ThT-HE] | 17.6 ± 3.6 | > 40 | 10.6 ± 2.9 | – | 23.9 ± 1.4 | 13.7 ± 1.4 | 40 ± 9 | 12.3 ± 1.8 | > 40 | > 40 | 20.9 ± 2.8 | 28.5 ± 9.7 | > 40 | > 40 | > 40 | > 40 | hardly show fluorescence | > 40 | high specificity to guanine quadruplex | generally lower than affinity of ThT
